In patent US11377416B2, “Crystalline forms of hydroxynorketamine” (SMALL PHARMA LTD, priority 2017, dated 2022):

Key:
[1] = TG/DTA thermal analysis of crystal forms; type: physicochemical; settings: heated 10° C./min from 20° C. to 300° C. under nitrogen
Experimental: Approximately 5 mg of material was weighed into an open aluminium pan and loaded into a simultaneous thermogravimetric/differential thermal analyser (TG/DTA) and held at room temperature. The sample was then heated at a rate of 10° C./min from 20° C. to 300° C. during which time the change in sample weight was recorded along with any differential thermal events (DTA). Nitrogen was used as the purge gas, at a flow rate of 300 cm^3/min.

[2] = comparison value for known crystal forms, conditions not given; cited from earlier work
[3] = pKa analysis, potentiometric (pH-metric) titration; type: physicochemical; settings: pH-metric triple titration, methanol-water co-solvent, pH 2.0-12.0, Yasuda-Shedlovsky extrapolation
Experimental: The sample pKa was determined using the potentiometric (pH-metric) technique following attempts to determine pKa via UV spectroscopic techniques.
UV-metric: The sample was initially titrated in a fast-UV triple titration between pH 2.0-12.0 at concentrations of 31-19 μM, under aqueous conditions. No evidence of any sample ionisation within the investigated pH range was inferred from the spectroscopic data obtained, meaning that any ionisable groups were remote from chromophores. Therefore, the sample was analysed using the pH-metric method.
pH-metric: The sample was subsequently titrated using the potentiometric technique to determine the non-UV active pKas. A triple titration was carried out under methanol-water co-solvent conditions from pH 2.0-12.0 at concentrations of 0.9-0.6 mM (the methanol mixing ratio varied from 53.0 to 33.3% w/w). No precipitation of the sample from solution was observed so the pKa was determined from the potentiometric data collected, by Yasuda-Shedlovsky extrapolation of the individual results obtained. pKa of 2R,6R-hydroxynorketamine was calculated as 6.51+/−0.02.

NC1(c2ccccc2Cl)CCCC(O)C1=O.O=C(O)CC(O)(CC(=O)O)C(=O)O (stereo not drawn) [2R,6R-Hydroxynorketamine Citrate]
temperature above which the material degrades (TG/DTA) [1]: above 157 °C

NC1(c2ccccc2Cl)CCCC(O)C1=O.O=C(O)C=CC(=O)O.O=C(O)C=CC(=O)O (stereo not drawn) [2R,6R-Hydroxynorketamine Difumarate, 2R,6R-hydroxynorketamine difumarate]
temperature above which the material degrades (TG/DTA) [1]: above 159 °C

NC1(c2ccccc2Cl)CCCC(O)C1=O.O=C(O)CC(O)C(=O)O [2R,6R-Hydroxynorketamine L-Malate, 2R,6R-hydroxynorketamine L-malate]
temperature above which the material degrades (TG/DTA) [1]: above 150 °C

N[C@@]1(c2ccccc2Cl)CCC[C@@H](O)C1=O.O=C(O)C(O)C(O)C(=O)O [2R,6R-Hydroxynorketamine L-Tartrate, 2R,6R-hydroxynorketamine L-tartrate]
temperature above which the material degrades (TG/DTA) [1]: above 157 °C

N[C@@]1(c2ccccc2Cl)CCC[C@@H](O)C1=O.O=C1CC[C@@H](C(=O)O)N1 [2R,6R-hydroxynorketamine L-pyroglutamate]
temperature above which the material degrades (TG/DTA) [1]: above 159 °C

Cl.N[C@@]1(c2ccccc2Cl)CCC[C@@H](O)C1=O [2R,6R-hydroxynorketamine hydrochloride]
aqueous solubility of known crystal forms [2]: 25 mg/mL

N[C@@]1(c2ccccc2Cl)CCC[C@@H](O)C1=O [2R,6R-hydroxynorketamine, 2R,6R-2-(2-Chlorophenyl)-2-(amino)-6-hydroxycyclohexanone]
pKa [3]: 6.51+/−0.02
